Source: ChEMBL document CHEMBL5506040, “Design of FK866-Based Degraders for Blocking the Nonenzymatic Functions of Nicotinamide Phosphoribosyltransferase” (J Med Chem, 2024)
pIC50: −log10 of the molar value. The source made the active and inactive calls. The calls are words filed in the database; no cut-off is given here.

How the values were obtained:
[1] = target: T1, Protein cereblon/Nicotinamide phosphoribosyltransferase (Homo sapiens) (UniProt P43490+Q96SW2); assay: PROTAC activity at CRBN/NAMPT in human SK-OV-3 cells assessed as induction of intracellular NAMPT degradation at 5 uM incubated for 24 hrs by Western blot analysis relative to control; format: cell-based
T1 sequence (P43490 whole entry, looked up): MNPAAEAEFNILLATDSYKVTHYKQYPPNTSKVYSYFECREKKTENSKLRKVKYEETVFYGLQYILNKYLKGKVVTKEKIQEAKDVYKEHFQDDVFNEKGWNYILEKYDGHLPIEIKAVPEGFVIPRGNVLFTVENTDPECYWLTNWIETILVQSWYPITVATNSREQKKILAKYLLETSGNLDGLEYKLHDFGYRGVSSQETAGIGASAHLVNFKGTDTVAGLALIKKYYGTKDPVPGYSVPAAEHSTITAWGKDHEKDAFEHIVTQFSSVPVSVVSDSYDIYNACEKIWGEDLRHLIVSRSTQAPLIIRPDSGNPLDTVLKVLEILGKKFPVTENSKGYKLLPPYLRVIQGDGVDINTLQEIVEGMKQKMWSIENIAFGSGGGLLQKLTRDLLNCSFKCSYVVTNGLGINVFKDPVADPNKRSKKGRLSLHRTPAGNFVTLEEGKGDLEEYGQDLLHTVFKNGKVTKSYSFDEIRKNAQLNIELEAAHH
T1 sequence (Q96SW2 whole entry, looked up): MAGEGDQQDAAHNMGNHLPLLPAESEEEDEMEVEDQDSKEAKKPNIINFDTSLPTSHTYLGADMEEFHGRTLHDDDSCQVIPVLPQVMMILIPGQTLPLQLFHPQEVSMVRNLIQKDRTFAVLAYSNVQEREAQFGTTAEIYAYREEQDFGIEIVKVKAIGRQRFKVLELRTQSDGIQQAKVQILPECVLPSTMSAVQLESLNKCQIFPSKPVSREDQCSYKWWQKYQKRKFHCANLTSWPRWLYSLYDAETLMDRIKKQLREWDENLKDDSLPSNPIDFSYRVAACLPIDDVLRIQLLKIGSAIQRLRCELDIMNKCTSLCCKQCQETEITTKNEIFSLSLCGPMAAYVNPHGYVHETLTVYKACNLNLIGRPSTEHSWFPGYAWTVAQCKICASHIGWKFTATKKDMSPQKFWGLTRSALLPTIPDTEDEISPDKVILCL

MIA PaCa-2 = assay: cells; settings: Homo sapiens, MIA PaCa-2, 72 h
Description: Cytotoxicity against human MIA PaCa-2 cells assessed as inhibition of cell growth incubated for 72 hrs by MTT assay

SK-OV-3 = assay: cells; settings: Homo sapiens, SK-OV-3, 72 h
Description: Cytotoxicity against human SK-OV-3 cells assessed as inhibition of cell growth incubated for 72 hrs by MTT assay

[2] = target: T1, Protein cereblon/Nicotinamide phosphoribosyltransferase (Homo sapiens); assay: PROTAC activity at CRBN/NAMPT in human SK-OV-3 cells assessed as induction of intracellular NAMPT degradation at 0.5 uM incubated for 24 hrs by Western blot analysis relative to control; format: cell-based
[3] = target: T1, Protein cereblon/Nicotinamide phosphoribosyltransferase (Homo sapiens); assay: PROTAC activity at CRBN/NAMPT in human SK-OV-3 cells assessed as induction of intracellular NAMPT degradation at 0.5 to 5 uM incubated for 24 hrs by Western blot analysis; format: cell-based; settings: dose 0.5-5 µM
[4] = target: Nicotinamide phosphoribosyltransferase (Mus musculus) (UniProt Q99KQ4); assay: Induction of NAMPT degradation in mouse CT26 cells at 0.1 to 5 uM incubated for 24 hrs by Western blot analysis; format: cell-based; settings: dose 0.1-5 µM
Sequence of Nicotinamide phosphoribosyltransferase (Mus musculus) (Q99KQ4 whole entry, looked up): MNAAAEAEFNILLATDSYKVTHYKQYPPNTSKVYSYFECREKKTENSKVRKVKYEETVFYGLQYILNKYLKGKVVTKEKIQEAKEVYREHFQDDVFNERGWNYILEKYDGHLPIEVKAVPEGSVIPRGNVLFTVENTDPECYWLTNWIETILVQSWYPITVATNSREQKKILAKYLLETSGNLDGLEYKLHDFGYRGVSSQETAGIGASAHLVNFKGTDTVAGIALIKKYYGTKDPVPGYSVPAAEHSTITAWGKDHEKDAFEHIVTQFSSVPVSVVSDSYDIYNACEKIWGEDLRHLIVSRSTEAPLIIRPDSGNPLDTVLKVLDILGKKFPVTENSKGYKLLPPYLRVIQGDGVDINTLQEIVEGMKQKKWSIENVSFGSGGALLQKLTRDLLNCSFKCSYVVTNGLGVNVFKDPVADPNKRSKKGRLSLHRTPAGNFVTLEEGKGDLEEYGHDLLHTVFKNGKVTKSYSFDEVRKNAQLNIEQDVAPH

CT26 = assay: cells; settings: Mus musculus, CT26, 72 h
Description: Cytotoxicity against mouse CT26 cells assessed as inhibition of cell growth incubated for 72 hrs by MTT assay

[5] = target: T2, von Hippel-Lindau disease tumor suppressor/Nicotinamide phosphoribosyltransferase (Homo sapiens, UniProt P43490+P40337); assay: PROTAC activity at VHL/NAMPT in human SK-OV-3 cells assessed as induction of intracellular NAMPT degradation incubated for 24 hrs by Western blot analysis relative to control; format: cell-based
T2 sequence (P43490 whole entry): as the sequence (P43490 whole entry, looked up) above
T2 sequence (P40337 whole entry): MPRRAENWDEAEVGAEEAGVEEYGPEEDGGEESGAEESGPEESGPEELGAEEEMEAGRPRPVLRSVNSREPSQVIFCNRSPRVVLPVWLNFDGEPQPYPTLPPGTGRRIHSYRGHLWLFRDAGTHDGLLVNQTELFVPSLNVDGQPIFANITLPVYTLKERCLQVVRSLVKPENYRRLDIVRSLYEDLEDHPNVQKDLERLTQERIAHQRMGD

[6] = target: T3, von Hippel-Lindau disease tumor suppressor/Nicotinamide phosphoribosyltransferase (Mus musculus) (UniProt Q99KQ4+P40338); assay: (§1) PROTAC activity at VHL/NAMPT in mouse CT26 cells assessed as induction of intracellular NAMPT degradation incubated for 24 hrs by Western blot analysis; format: cell-based
T3 sequence (P40338 whole entry, looked up): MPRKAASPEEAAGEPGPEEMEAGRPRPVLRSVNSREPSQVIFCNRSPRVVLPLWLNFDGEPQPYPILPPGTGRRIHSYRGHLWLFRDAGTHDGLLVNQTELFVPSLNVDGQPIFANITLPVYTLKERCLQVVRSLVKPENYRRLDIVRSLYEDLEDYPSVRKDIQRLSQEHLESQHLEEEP
T3 sequence (Q99KQ4 whole entry, looked up): as the sequence (Q99KQ4 whole entry, looked up) above

[7] = target: von Hippel-Lindau disease tumor suppressor/Nicotinamide phosphoribosyltransferase (Mus musculus, UniProt Q99KQ4+P40338); assay: as §1; format: cell-based
Sequence of von Hippel-Lindau disease tumor suppressor/Nicotinamide phosphoribosyltransferase (Mus musculus, UniProt Q99KQ4+P40338) (Q99KQ4 whole entry): as the sequence (Q99KQ4 whole entry, looked up) above
Sequence of von Hippel-Lindau disease tumor suppressor/Nicotinamide phosphoribosyltransferase (Mus musculus, UniProt Q99KQ4+P40338) (P40338 whole entry): as the sequence (P40338 whole entry, looked up) above

[8] = target: T3, von Hippel-Lindau disease tumor suppressor/Nicotinamide phosphoribosyltransferase (Mus musculus); assay: PROTAC activity at VHL/NAMPT in mouse CT26 cells assessed as induction of extracellular NAMPT degradation at 0.1 to 5 uM incubated for 24 hrs by Western blot analysis; format: cell-based; settings: dose 0.1-5 µM
[9] = target: T2, von Hippel-Lindau disease tumor suppressor/Nicotinamide phosphoribosyltransferase; assay: PROTAC activity at VHL/NAMPT in human MKN-45 cells assessed as induction of intracellular NAMPT degradation incubated for 24 hrs by Western blot analysis relative to control; format: cell-based
[10] = target: Nicotinamide phosphoribosyltransferase (Homo sapiens) (UniProt P43490); settings: SK-OV-3, dose 100.0 nM, time 24.0 hrs
Sequence of Nicotinamide phosphoribosyltransferase (Homo sapiens) (P43490 whole entry, looked up): as the sequence (P43490 whole entry, looked up) above

SMILES	Activity [1]	pIC50 (MIA PaCa-2)	pIC50 (SK-OV-3)	Activity [2]	Activity [3]	also measured
O=C(/C=C/c1cccnc1)NCCCCC1CCN(C(=O)c2ccc(NC(=O)COCCOCCOCCNc3cccc4c3C(=O)N(C3CCC(=O)NC3=O)C4=O)cc2)CC1 (centres undefined)	0%	8.40	8.40	0%	–	–
O=C(/C=C/c1cccnc1)NCCCCC1CCN(C(=O)c2ccc(C(=O)NCc3cn(CCOCCOCCOCCNc4cccc5c4C(=O)N(C4CCC(=O)NC4=O)C5=O)nn3)cc2)CC1 (centres undefined)	20%	8.40	8.40	34%	–	–
O=C(/C=C/c1cccnc1)NCCCCC1CCN(C(=O)c2ccc(NC(=O)CCCN3CCN(c4cccc5c4C(=O)N(C4CCC(=O)NC4=O)C5=O)CC3)cc2)CC1 (centres undefined)	–	8.40	8.40	–	inactive	–
O=C(/C=C/c1cccnc1)NCCCCC1CCN(C(=O)c2ccc(C(=O)N3CCC4(CC3)CN(c3cccc5c3C(=O)N(C3CCC(=O)NC3=O)C5=O)C4)cc2)CC1 (centres undefined)	–	8.40	8.40	–	inactive	–
O=C(/C=C/c1cccnc1)NCCCCC1CCN(C(=O)c2ccc(NC(=O)COCCOCCNc3cccc4c3C(=O)N(C3CCC(=O)NC3=O)C4=O)cc2)CC1 (centres undefined)	0%	8.40	8.40	0%	–	–
O=C(/C=C/c1cccnc1)NCCCCC1CCN(C(=O)c2ccc(C(=O)NCCCCNc3cccc4c3C(=O)N(C3CCC(=O)NC3=O)C4=O)cc2)CC1 (centres undefined)	22%	8.40	8.40	0%	–	–
O=C(/C=C/c1cccnc1)NCCCCC1CCN(C(=O)c2ccc(NC(=O)CCCCN3CCN(c4cccc5c4C(=O)N(C4CCC(=O)NC4=O)C5=O)CC3)cc2)CC1 (centres undefined)	–	8.40	8.40	–	inactive	–
O=C(/C=C/c1cccnc1)NCCCCC1CCN(C(=O)c2ccc(C(=O)N3CCC(C(=O)N4CCN(c5cccc6c5C(=O)N(C5CCC(=O)NC5=O)C6=O)CC4)CC3)cc2)CC1 (centres undefined)	–	8.40	8.40	–	inactive	–
O=C(/C=C/c1cccnc1)NCCCCC1CCN(C(=O)c2ccc(C(=O)NCCNc3cccc4c3C(=O)N(C3CCC(=O)NC3=O)C4=O)cc2)CC1 (centres undefined)	11%	8.40	8.40	0%	–	–
O=C(/C=C/c1cccnc1)NCCCCC1CCN(C(=O)c2ccc(C(=O)N3CCN(c4cccc5c4C(=O)N(C4CCC(=O)NC4=O)C5=O)CC3)cc2)CC1 (centres undefined)	–	8.40	8.40	–	inactive	–
O=C(/C=C/c1cccnc1)NCCCCC1CCN(C(=O)c2ccc(C(=O)NCc3cn(CCOCCOCCNc4cccc5c4C(=O)N(C4CCC(=O)NC4=O)C5=O)nn3)cc2)CC1 (centres undefined)	0%	8.40	8.40	0%	–	–
O=C(/C=C/c1cccnc1)NCCCCC1CCN(C(=O)c2ccc(C(=O)N3CCN(Cc4ccc(CNc5cccc6c5C(=O)N(C5CCC(=O)NC5=O)C6=O)cc4)CC3)cc2)CC1 (centres undefined)	–	8.40	8.40	–	inactive	–
O=C(/C=C/c1cccnc1)NCCCCC1CCN(C(=O)c2ccc(C(=O)NCCCCCNc3cccc4c3C(=O)N(C3CCC(=O)NC3=O)C4=O)cc2)CC1 (centres undefined)	0%	8.40	8.40	0%	–	–
O=C(/C=C/c1cccnc1)NCCCCC1CCN(C(=O)c2ccc(C(=O)N3CCC4(CCN(c5cccc6c5C(=O)N(C5CCC(=O)NC5=O)C6=O)C4)C3)cc2)CC1 (centres undefined)	–	8.40	8.40	–	inactive	–
Cc1ncsc1-c1ccc([C@H](C)NC(=O)[C@H]2C[C@H](O)CN2C(=O)[C@@H](NC(=O)COCCOCCOCCNC(=O)c2ccc(C(=O)N3CCC(CCCCNC(=O)/C=C/c4cccnc4)CC3)cc2)C(C)(C)C)cc1	–	–	–	–	–	Activity [4]: inactive
Cc1ncsc1-c1ccc([C@@H](C)NC(=O)[C@@H]2C[C@@H](O)CN2C(=O)[C@@H](NC(=O)COCCOCCOCCOCCNC(=O)c2ccc(CN3CCN(S(=O)(=O)c4ccc(NC(=S)NCc5cccnc5)cc4)CC3)cc2)C(C)(C)C)cc1	–	–	5.00	–	–	pIC50 (CT26): < 4.00

SMILES	Activity [1]	pIC50 (MIA PaCa-2)	pIC50 (SK-OV-3)	Activity [2]	Activity [3]	also measured
O=C(/C=C/c1cccnc1)NCCCCC1CCN(C(=O)c2ccc(C(=O)N3CCC4(CC3)CC(C(=O)N3CCN(c5cccc6c5C(=O)N(C5CCC(=O)NC5=O)C6=O)CC3)C4)cc2)CC1 (centres undefined)	–	8.40	8.40	–	inactive	–
O=C(/C=C/c1cccnc1)NCCCCC1CCN(C(=O)c2ccc(NC(=O)CN3CCN(c4cccc5c4C(=O)N(C4CCC(=O)NC4=O)C5=O)CC3)cc2)CC1 (centres undefined)	–	8.40	8.40	–	inactive	–
O=C(/C=C/c1cccnc1)NCCCCC1CCN(C(=O)c2ccc(C(=O)NCc3cn(CCOCCOCCOCCOCCOCCNc4cccc5c4C(=O)N(C4CCC(=O)NC4=O)C5=O)nn3)cc2)CC1 (centres undefined)	52%	8.40	8.40	51%	–	–
O=C(/C=C/c1cccnc1)NCCCCC1CCN(C(=O)c2ccc(C(=O)NCc3cn(CCOCCOCCOCCOCCNc4cccc5c4C(=O)N(C4CCC(=O)NC4=O)C5=O)nn3)cc2)CC1 (centres undefined)	27%	8.40	8.40	40%	–	–
O=C(/C=C/c1cccnc1)NCCCCC1CCN(C(=O)c2ccc(NC(=O)CCOCCOCCOCCOCCNc3cccc4c3C(=O)N(C3CCC(=O)NC3=O)C4=O)cc2)CC1 (centres undefined)	0%	8.40	8.40	0%	–	–
O=C(/C=C/c1cccnc1)NCCCCC1CCN(C(=O)c2ccc(NC(=O)COCCOCCOCCOCCNc3cccc4c3C(=O)N(C3CCC(=O)NC3=O)C4=O)cc2)CC1 (centres undefined)	0%	8.40	8.40	0%	–	–
O=C(/C=C/c1cccnc1)NCCCCC1CCN(C(=O)c2ccc(C(=O)N3CCC4(C3)CN(c3cccc5c3C(=O)N(C3CCC(=O)NC3=O)C5=O)C4)cc2)CC1 (centres undefined)	–	8.40	8.40	–	inactive	–
O=C(/C=C/c1cccnc1)NCCCCC1CCN(C(=O)c2ccc(C(=O)NCc3cn(CCOCCNc4cccc5c4C(=O)N(C4CCC(=O)NC4=O)C5=O)nn3)cc2)CC1 (centres undefined)	30%	8.40	8.40	25%	–	–
O=C(/C=C/c1cccnc1)NCCCCC1CCN(C(=O)c2ccc(C(=O)NCCCCCCNc3cccc4c3C(=O)N(C3CCC(=O)NC3=O)C4=O)cc2)CC1 (centres undefined)	0%	8.40	8.40	0%	–	–
O=C(/C=C/c1cccnc1)NCCCCC1CCN(C(=O)c2ccc(C(=O)N3CCC(CC(=O)Nc4cccc5c4C(=O)N(C4CCC(=O)NC4=O)C5=O)CC3)cc2)CC1 (centres undefined)	–	8.40	8.40	–	inactive	–
Cc1ncsc1-c1ccc([C@H](C)NC(=O)[C@@H]2C[C@@H](O)CN2C(=O)[C@@H](NC(=O)COCCOCCOCCOCCNC(=O)c2ccc(C(=O)N3CCC(CCCCNC(=O)/C=C/c4cccnc4)CC3)cc2)C(C)(C)C)cc1	–	8.40	6.05	–	–	DC50 [5]: 25 nM; Activity [6]: Dose-Dependent Effect; DC50 [7]: 920 nM; Activity [8]: Active; DC50 [9]: 6.4 nM; inhibition [10]: Active; pIC50 (CT26): 4.64
O=C(/C=C/c1cccnc1)NCCCCC1CCN(C(=O)c2ccc(C(=O)N3CCC(C(=O)Nc4cccc5c4C(=O)N(C4CCC(=O)NC4=O)C5=O)CC3)cc2)CC1 (centres undefined)	–	8.40	8.40	–	inactive	–
O=C(/C=C/c1cccnc1)NCCCCC1CCN(C(=O)c2ccc(NC(=O)c3ccc(CN4CCN(c5cccc6c5C(=O)N(C5CCC(=O)NC5=O)C6=O)CC4)cc3)cc2)CC1 (centres undefined)	–	8.40	8.40	–	inactive	–
O=C(/C=C/c1cccnc1)NCCCCC1CCN(C(=O)c2ccc(C(=O)NCCCNc3cccc4c3C(=O)N(C3CCC(=O)NC3=O)C4=O)cc2)CC1 (centres undefined)	0%	8.40	8.40	29%	–	–
O=C(/C=C/c1cccnc1)NCCCCC1CCN(C(=O)c2ccc(C(=O)N3CC4(CCN(c5cccc6c5C(=O)N(C5CCC(=O)NC5=O)C6=O)CC4)C3)cc2)CC1 (centres undefined)	–	8.40	8.40	–	inactive	–
O=C(/C=C/c1cccnc1)NCCCCC1CCN(C(=O)c2ccc(C(=O)NCCCCCc3cccc4c3CN(C3CCC(=O)NC3=O)C4=O)cc2)CC1 (centres undefined)	0%	8.40	8.40	0%	–	–
